The text below walks through data of publication PMC8224802 (Pharmaceutics, 2021).

Molecules are shown by their SMILES. Read-outs that look alike come from different tables or passages of the source.

Usually IC50 stands for the midpoint of a concentration-inhibition curve.

For data set [1] the following is noted: cited from earlier work.
Details of data set [2]: method as in earlier work. As to conditions: Table S3, ref [1] of the supplement (Ganio et al., 2010); cited from earlier work.
Another data set has as its system CYP3A4. Also noted: method as in PMID 28232125. As to conditions: read-out: Ki of QCT for CYP3A4 activity; cited from earlier work.
Data set [3] deals with microsomal metabolism of RPG (repaglinide). As to the kind of experiment: In vitro inhibition of RPG metabolism by QCT in HLM. It counts as in vitro ADME, human. As to conditions: human, human liver microsomes. As for the experimental part: (§1) The intrinsic metabolic clearance (CLint) was calculated as Vmax/Km. […] The parameter α is indicative of the inhibition type. The mixed model is a general equation that includes competitive, uncompetitive, and noncompetitive inhibition as special cases. When α = 1, the mixed model is identical to a noncompetitive inhibition. When α is very large (α→∞) or very small (α→0), the mixed model becomes identical to competitive inhibition or uncompetitive inhibition, respectively.
For orientation: Microsomes from liver hold many membrane-bound enzymes, among them those of drug oxidation.

Data set [4] deals with microsomal metabolism of RPG in HLM. Described as above. Format: in vitro ADME, human. The method, then: as §1
Data set [5] has as its system in vitro metabolism of RPG in HLM. As to conditions: cited from earlier work.
Data set [6] in a line: Microsomal protein binding by rapid equilibrium dialysis (HLM). As to conditions: human, microsomes. As for the experimental part: (§2) A 200 μL spiked samples and 400 μL PBS were placed into the “sample” and “buffer” chambers of the RED device, respectively. After 4-h incubation to equilibrate between the buffer and plasma compartments, the RED plate was sampled from both compartments. The samples were matrix-matched for analysis by addition of either diluted plasma or buffer; (a) blank diluted plasma added to the buffer samples and (b) blank buffer added to the diluted plasma sample, at a ratio of 50:50 v/v. The unbound fractions in microsomes and diluted plasma were determined by dividing the analyte/IS peak area ratios of the (a) sample by those of the (b) sample. The unbound fraction in diluted plasma (fu,d) was converted to the unbound fraction in undiluted plasma (fu) using a Kalvass equation as below (DF: dilution factor). (1) fu=1/DF/[(1/fu,d)−1]+1/DF
On the technique in general: In equilibrium dialysis only unbound substance equilibrates across the membrane.

Data set [7] can be described thus: Plasma protein binding by rapid equilibrium dialysis (human plasma). It counts as in vitro ADME. As to conditions: human, plasma (20-fold diluted); Table S3, in-house; species not printed (clinical prediction); read-out: fu,QCT. The method, then: as §2
Data set [8] in a line: In vivo oral pharmacokinetic study of RPG without or with QCT in rats. Further details: species or system Sprague-Dawley rats. As to conditions: rats, oral QCT 100 mg/kg. The method, then: Rats were anesthetized via intramuscular injection of 10 mg/kg zoletil. The femoral vein and artery of the rats were cannulated using a polyethylene tube (BD Medical, Franklin Lakes, NJ, USA). […] The vehicle solutions for the intravenous and oral doses were composed of PEG 400 and aqueous 0.3% CMC solution (50:50 v/v).
For comparison, the extent of absolute oral bioavailability (F; expressed as percent of dose administered) was calculated by dividing the dose-normalized AUC after oral administration by the dose-normalized AUC after intravenous injection. The peak plasma concentration (Cmax) and time to reach Cmax (Tmax) were obtained directly from the measured experimental data.

In data set [9] the test system is microsomal metabolism of RPG (repaglinide). As to the kind of experiment: In vitro inhibition of RPG metabolism by QCT in RLM. It counts as in vitro ADME, rat. As to conditions: rat, rat liver microsomes. The method, then: as §1
The subject of data set [10] is microsomal metabolism of RPG in RLM. Described as above. Format: in vitro ADME, rat. The method, then:
as §1

For data set [11] the following is noted: healthy subjects, cited from earlier work.
Setting [12] is: probe RPG (repaglinide), 1, 3, 10, 30 and 100 μM.

`COC(=O)[C@H](c1ccccc1Cl)N1CCc2sccc2C1` [clopidogrel]: the “Increase of systemic exposure to orally administered RPG by CYP2C8 inhibitors” value in data set [1] is given as 3.1–5.1 fold.

Regarding `COc1cc(Cc2cnc(N)nc2N)cc(OC)c1OC` [trimethoprim], the “Increase of systemic exposure to orally administered RPG by CYP2C8 inhibitors” value in data set [1] was 1.6–2 fold.

Consider `O=c1c(O)c(-c2ccc(O)c(O)c2)oc2cc(O)cc(O)c12` [QCT, Quercetin], for which, in [2], the “Imax,u (maximum unbound plasma concentration of QCT)” value is […]. Besides, the Ki with CYP3A4 was […]; in data set [3] (setting [12]), 24.2 µM; in data set [3] (probe RPG (repaglinide), Table S3, S = 5 μM, read-out: Calculated Ki, (fu,mic,QCT × IC50) / (S / Km + 1)), 0.534 µM; in data set [5] (read-out: Ki for the inhibitory effect of QCT on in vitro metabolism of RPG), 0.61 µM. Also, the IC50 in [3] (probe RPG (repaglinide), 3 μM, IC50 of QCT on the microsomal metabolism of RPG, HLM 0.5 mg/mL, 3 μM RPG) is 3 µM; in [4] (Table S3, source Figure 4, read-out: IC50 used for estimation of R) it was 1.66 µM; in [4] (read-out: IC50 of QCT on the microsomal metabolism of RPG, HLM 0.5 mg/mL, 3 μM RPG) it was 3.03 ± 1.84 µM. The “Type of inhibition of RPG metabolism by QCT” value in [4] (HLM, Dixon plot and model fit) was “mixed inhibition”; in data set [10] (RLM, Dixon plot and model fit), “mixed inhibition”. Further, the “Inhibition potency of QCT on hepatic metabolism of RPG in vitro” value in data set [4] (humans (HLM)) was “moderate”; in data set [10] (rats (RLM)), “weak”. In [5] (QCT 25 μM, RPG 0.2 μM), the “Inhibition of in vitro metabolism of RPG” value is 58%. Besides, in data set [5] (RPG 0.2 and 2 μM, QCT 25 μM), the “Effect of QCT on metabolism of RPG in HLM” value is “significantly inhibited”. The fraction unbound at 4 h, 5 μM in data set [6] was 0.381; in data set [7], 0.0462. For the same compound, the “Classification of QCT as inhibitor of in vivo metabolism and systemic exposure of RPG” value in data set [8] was “weak inhibitor”. The same compound had a 50% inhibitory concentration (IC50) at 60 min in data set [9] (probe RPG (repaglinide), 3 μM) of […]. In addition, in [9] (setting [12]), the Ki at 60 min is 72 µM.

As for `CCC(C)n1ncn(-c2ccc(N3CCN(c4ccc(OCC5COC(Cn6cncn6)(c6ccc(Cl)cc6Cl)O5)cc4)CC3)cc2)c1=O` (stereo not shown) [itraconazole], the “Increase of systemic exposure to orally administered RPG by CYP3A4 inhibitors” value in data set [1] is listed as 1.4 fold.

As for `CN(CCOc1ccc(CC2SC(=O)NC2=O)cc1)c1ccccn1` (stereo not shown) [rosiglitazone], the “Effect of oral QCT on the pharmacokinetics of rosiglitazone” value in [11] (QCT 500 mg/day for 21 days) was “did not significantly change”.

For the compound `Cn1c(=O)c2c(ncn2C)n(C)c1=O` [caffeine], the “Effect of oral QCT on systemic exposure (AUC and/or Cmax)” value in [11] (QCT 500 mg/day for 14 days) is “significantly increased”.

Consider `CC[C@H]1OC(=O)[C@H](C)C(=O)[C@H](C)[C@@H](O[C@@H]2O[C@H](C)C[C@H](N(C)C)[C@H]2O)[C@](C)(OC)C[C@@H](C)C(=O)[C@H](C)[C@H]2N(CCCCn3cnc(-c4cccnc4)c3)C(=O)O[C@]12C` [telithromycin], for which, in [1], the “Increase of systemic exposure to orally administered RPG by CYP3A4 inhibitors” value is recorded as 1.8 fold.
